Laboratory results taken from patent publication US9744148B2, “Kallikrein 7 inhibitors” (SIXERA PHARMA AB, priority 2014, dated 2017).

Target: Active human KLK7 (SCCE) (Homo sapiens (Human), UniProt P49862)
Test: KLK7 Inhibitor Test
Assay type: biochemical
Conditions: substrate MeO-Suc-Arg-Pro-Tyr-pNA, pH 7.2, 37° C., absorbance at 405 nm
Protocol: KLK7 Inhibitor Test Substrate:(MeO-Suc-[…]), acetate salt, Peptide international, lot #906841, previously named S-2586 Enzyme: […] Buffer: 10 mM NaPhospate, 0.5 M NaCl, pH 7.2 […] 10 μl of substance in DMSO was added to wells giving final concentrations of 20 μ[…], and 0.15625 μM. 40 μl of active KLK7 (SCCE) (diluted to 12.5 μg/ml in activity buffer) was added all wells except blank to which activity buffer was added. […] The mean value V of each sample was calculated (n=2 for the substances and n=4 for the control). From the values of V the % of total activity was calculated as (Vinhibitor/Vcontrol (no inhibitor))×100. Plotting and calculation was then done in originPro. % of total activity (y) was plotted vs. log [inhibitor] (log x) and a function of dose response y=A1+(A2-A1)/(1+10^((LOG(x0)-x)*p)) where A1=Bottom platue, A2=Top platue, x0=EC50 and p=Hill slope was fitted to the curve. […] The IC50 values were used to identify KLK7 inhibitors according to the invention.

Chain of Active human KLK7 (SCCE) (P49862 30-253): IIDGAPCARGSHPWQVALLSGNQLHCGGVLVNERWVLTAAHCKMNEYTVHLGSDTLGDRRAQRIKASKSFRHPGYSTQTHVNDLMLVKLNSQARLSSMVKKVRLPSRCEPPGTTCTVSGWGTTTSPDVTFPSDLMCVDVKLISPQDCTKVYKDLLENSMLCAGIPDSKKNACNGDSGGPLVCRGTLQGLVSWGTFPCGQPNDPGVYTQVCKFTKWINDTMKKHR

IC50 [µM] | SMILES
4.33 | COc1ccc(NC(=O)C(OC(=O)C(c2ccccc2)c2ccccc2)c2ccccc2)cc1 (stereo not shown) [Compound 78, [2-(4-methoxyanilino)-2-oxo-1-phenyl-ethyl] 2,2-diphenylacetate]
4.56 | Cc1cc(NC(=O)C(OC(=O)C(c2ccccc2)c2ccccc2)C(C)C)no1 (stereo not shown) [Compound 79, [2-methyl-1-[(5-methylisoxazol-3-yl)carbamoyl]propyl] 2,2-diphenylacetate]
4.7 | Cc1cc(NC(=O)COC(=O)C(c2ccccc2)c2ccccc2)no1 [Compound 80]
5 | Cc1cc(NC(=O)COC(=O)Cc2ccc(Cl)cc2)no1 [Compound 81, [2-[(5-methylisoxazol-3-yl)amino]-2-oxo-ethyl] 2-(4-chlorophenyl)acetate]
5.5 | CCC(OC(=O)C(CCSC)NC(=O)c1ccccc1)C(=O)Nc1cc(C)on1 (stereo not shown) [Compound 82]
5.89 | CC(OC(=O)C(NC(=O)c1ccccc1)c1ccccc1)C(=O)NCc1ccccc1 (stereo not shown) [Compound 83, [2-(benzylamino)-1-methyl-2-oxo-ethyl] 2-benzamido-2-phenyl-acetate]
6.25 | COc1ccc(CC(=O)OC(C(=O)Nc2cc(C)on2)C(C)C)cc1 (stereo not shown) [Compound 84, [2-methyl-1-[(5-methylisoxazol-3-yl)carbamoyl]propyl] 2-(4-methoxyphenyl)acetate]
6.43 | CCC(OC(=O)C(NC(=O)c1ccccc1)c1ccccc1)C(=O)Nc1cc(C)on1 (stereo not shown) [Compound 85]
6.64 | Cc1cc(NC(=O)COC(=O)C(c2ccccc2)c2ccccc2)no1 [Compound 86]
7.39 | COc1ccc(NC(=O)COC(=O)C(c2ccccc2)c2ccccc2)cc1 [Compound 87]
8.49 | O=C(COC(=O)C(c1ccccc1)c1ccccc1)Nc1ccc(F)cc1 [Compound 88]
9.1 | CCC(OC(=O)C(CC(C)C)NC(=O)c1ccccc1)C(=O)Nc1cc(C)on1 (stereo not shown) [Compound 89]
11.2 | O=C(COC(=O)C(c1ccccc1)c1ccccc1)Nc1ccccc1 [Compound 90]
4.1 | CC(C)C(OC(=O)Cc1ccc(Cl)cc1)C(=O)Nc1ccccc1 (stereo not shown) [Compound 91, [2-methyl-1-(phenylcarbamoyl)propyl] 2-(4-chlorophenyl)acetate]
3.8 | COc1ccc(NC(=O)C(OC(=O)Cc2ccc(Cl)cc2)C(C)C)cc1 (stereo not shown) [Compound 92, [1-[(4-methoxyphenyl)carbamoyl]-2-methyl-propyl] 2-(4-chlorophenyl)acetate]
2.3 | CC(C)C(OC(=O)C(NC(=O)c1ccccc1)c1ccccc1)C(=O)Nc1ccccc1 (stereo not shown) [Compound 93, [2-methyl-1-(phenylcarbamoyl)propyl] 2-benzamido-2-phenyl-acetate]
3.6 | COc1ccc(CC(=O)OC(C(=O)Nc2ccccc2)C(C)C)cc1 (stereo not shown) [Compound 94, [2-methyl-1-(phenylcarbamoyl)propyl] 2-(4-methoxyphenyl)acetate]
6.3 | COc1ccc(NC(=O)C(OC(=O)C(NC(=O)c2ccccc2)c2ccccc2)C(C)C)cc1 (stereo not shown) [Compound 95, [1-[(4-methoxyphenyl)carbamoyl]-2-methyl-propyl] 2-benzamido-2-phenyl-acetate]
3.7 | CC(C)C(OC(=O)C(NC(=O)c1ccccc1)c1ccccc1)C(=O)Nc1ccc(F)cc1 (stereo not shown) [Compound 96, [1-[(4-fluorophenyl)carbamoyl]-2-methyl-propyl] 2-benzamido-2-phenyl-acetate]
